Measurements as given in patent US4214091A, “Antibiotic No. 2-200 and process for producing thereof” (Chugai Seiyaku Kabushiki Kaisha, priority 1977, dated 1980).
Converted amounts (≈) assume the structure as drawn. Where two headings read alike, the source gives them in different places.

Experiments:
[1] = test system: Escherichia coli NIHJ; assay: MIC by agar plate dilution method; format: cell-based; conditions: 24 h, 37° C., read-out: Minimum inhibitory concentration
Method: (§1) The test organisms were incubated by agar plate dilution method at 37° C. for 24 hours, after which their growth was observed. The test organisms were incubated on an NB medium (product of Eiken Kagaku) at 37° C. overnight, and each culture obtained was diluted 10^3 - to 10^4 -fold and stamped on an agar plate. The following agar plate media were used:
(§2) NA: nutrient agar (product of Eiken Kagaku)
(§3) NA+G6P: glucose-6-phosphoric acid (50 μg/ml) plus nutrient agar
(§4) Anti-3A: antibiotic medium No. 3 agar (product of Difco)
(§5) MHA: Mueller Hinton Agar (product of Eiken Kagaku)

[2] = test system: Proteus mirabilis 1287; assay: MIC by agar plate dilution method; format: cell-based; conditions: 37° C., 24 hours
Method: as §1, §2, §3, §4, §5

[3] = test system: Pseudomonas aeruginosa J-272; assay: MIC by agar plate dilution method; format: cell-based; conditions: 37° C., 24 hours
Method: as §1, §2, §3, §4, §5

[4] = test system: Salmonella enteritidis T-1; assay: MIC by agar plate dilution method; format: cell-based; conditions: Salmonella enterica, 24 h, 37° C., read-out: Minimum inhibitory concentration
Method: as §1, §2, §3, §4, §5

[5] = test system: Serratia marrcescens T-50; assay: MIC by agar plate dilution method; format: cell-based; conditions: for MIC: Serratia
Method: as §1, §2, §3, §4, §5

[6] = test system: Shigella sonnei; assay: MIC by agar plate dilution method; format: cell-based; conditions: 24 h, 37° C., read-out: Minimum inhibitory concentration
Method: as §1, §2, §3, §4, §5

[7] = test system: Staphylococcus aureus 209P; assay: MIC by agar plate dilution method; format: cell-based; conditions: 24 h, 37° C., read-out: Minimum inhibitory concentration
Method: as §1, §2, §3, §4, §5

[8] = test system: Staphylococcus aureus 222; assay: MIC by agar plate dilution method; format: cell-based; conditions: Staphylococcus aureus, 222, 24 h, 37° C., read-out: Minimum inhibitory concentration
Method: as §1, §2, §3, §4, §5

[9] = test system: Staphylococcus aureus A-5; assay: MIC by agar plate dilution method; format: cell-based; conditions: A5, 24 h, 37° C., read-out: Minimum inhibitory concentration
Method: as §1, §2, §3, §4, §5

[10] = test system: Staphylococcus epidermidis T0-3; assay: MIC by agar plate dilution method; format: cell-based; conditions: T03, 24 h, 37° C., read-out: Minimum inhibitory concentration
Method: as §1, §2, §3, §4, §5

[11] = test system: 5-week-old ddY male mice; conditions: mouse, in vivo
Method: The crystal of the antibiotic No. 2-200 obtained in Example 4 was floated in sterile distilled water, mixed with 5% caustic soda to adjust the pH to 7.0, and dissolved to make a solution. The solution was adminstered to 5-week-old ddY male mice to examine its actuate toxicity as well as delayed toxicity. During 10 days that followed the administration, the weight of each mouse, its food intake and water intake were measured.

[12] = Solubility in solvents; format: physicochemical
[13] = test system: bacteria of genus Serratia; assay: antibacterial activity (general statement); format: cell-based
[14] = test system: mutant of Pseudomonus aeroginosa, for example, G-75, M-57740; assay: growth inhibition of β-lactam-sensitive mutant; format: cell-based; conditions: mutant sensitive to a β-lactam antibiotic
Description: The present inventors further continued their studies and succeeded in isolating from a culture of actinomycete an effective substance as a crystal, which was subjected to X-ray diffractometry to determine its structure. […] This invention is a development of studies based on these findings.

## C=CC(C)=CC1(C)SC(=O)C(C)=C1O (single isomer, unassigned) [No. 2-200]
[1]; Anti-3A
  MIC: 200 µg/mL (≈ 951 µM)
[1]; MHA
  MIC: 50 µg/mL (≈ 238 µM)
[1]; NA + G6P (50 μg/ml)
  MIC: 100 µg/mL
[1]; NA
  MIC: 200 µg/mL (≈ 951 µM)
[2]; Anti-3A
  Minimum inhibitory concentration: 50 µg/mL (≈ 238 µM)
[2]; MHA
  Minimum inhibitory concentration: 50 µg/mL (≈ 238 µM)
[2]; NA + G6P (50 μg/ml)
  Minimum inhibitory concentration: 50 µg/mL
[2]; Proteus mirabilis, 1287, NA, read-out: Minimum inhibitory concentration
  MIC: 50 µg/mL (≈ 238 µM)
[3]; Anti-3A
  Minimum inhibitory concentration: > 400 µg/mL
[3]; MHA
  Minimum inhibitory concentration: > 400 µg/mL
[3]; NA + G6P (50 μg/ml)
  Minimum inhibitory concentration: > 400 µg/mL
[3]; Pseudomonas aeruginosa, J272, NA, read-out: Minimum inhibitory concentration
  MIC: > 400 µg/mL
[4]; Anti-3A
  MIC: 3.12 µg/mL (≈ 14.8 µM)
[4]; MHA
  MIC: 3.12 µg/mL (≈ 14.8 µM)
[4]; NA + G6P (50 μg/ml)
  MIC: 6.25 µg/mL
[4]; NA
  MIC: 6.25 µg/mL (≈ 29.7 µM)
[5]; NA + G6P (50 μg/ml), 37° C., 24 hours
  Minimum inhibitory concentration: 50 µg/mL
[5]; T50, 24 h, read-out: Minimum inhibitory concentration, Anti-3A, 37° C.
  MIC: 12.5 µg/mL (≈ 59.4 µM)
[5]; T50, 24 h, read-out: Minimum inhibitory concentration, MHA, 37° C.
  MIC: 1.56 µg/mL (≈ 7.42 µM)
[5]; T50, NA, 37° C., 24 hours, read-out: Minimum inhibitory concentration
  MIC: 50 µg/mL (≈ 238 µM)
[6]; Anti-3A
  MIC: 100 µg/mL (≈ 476 µM)
[6]; MHA
  MIC: 50 µg/mL (≈ 238 µM)
[6]; NA + G6P (50 μg/ml)
  MIC: 100 µg/mL
[6]; NA
  MIC: 100 µg/mL (≈ 476 µM)
[7]; Anti-3A
  MIC: 25 µg/mL (≈ 119 µM)
[7]; MHA
  MIC: 50 µg/mL (≈ 238 µM)
[7]; NA + G6P (50 μg/ml)
  MIC: ≥ 50 µg/mL
[7]; NA
  MIC: > 50 µg/mL
[8]; Anti-3A
  MIC: > 400 µg/mL
[8]; MHA
  MIC: 100 µg/mL (≈ 476 µM)
[8]; NA + G6P (50 μg/ml)
  MIC: ≥ 400 µg/mL
[8]; NA
  MIC: > 400 µg/mL
[9]; Anti-3A
  MIC: 25 µg/mL (≈ 119 µM)
[9]; MHA
  MIC: 50 µg/mL (≈ 238 µM)
[9]; NA + G6P (50 μg/ml)
  MIC: 25 µg/mL
[9]; NA
  MIC: 50 µg/mL (≈ 238 µM)
[10]; Anti-3A
  MIC: 100 µg/mL (≈ 476 µM)
[10]; MHA
  MIC: 50 µg/mL (≈ 238 µM)
[10]; NA + G6P (50 μg/ml)
  MIC: 50 µg/mL
[10]; NA
  MIC: 50 µg/mL (≈ 238 µM)
[11]
  delayed toxicity: entirely free from delayed toxicity
[12]; acetone
  solubility: easily soluble
[12]; alkaline water
  solubility: easily soluble
[12]; ethyl acetate
  solubility: easily soluble
[12]; methanol
  solubility: easily soluble
[12]; neutral to acidic water
  solubility: slightly soluble
[13]
  antibacterial activity to bacteria of genus Serratia: particularly strong antibacterial activity
[14]
  inhibition of growth: strongly inhibits the growth
